The structures appear in SMILES notation.

The data set is described as follows: Henry solubility constant Hcp at 298.15 K (mol/(m3 Pa)). The note with it: reference: Hiatt (2013).
For the compound `CCCc1ccccc1` [propylbenzene], the “Henry solubility constant Hcp” value was 0.0019.

`ClC(Cl)=C(Cl)Cl` [tetrachloroethene]: the “Henry solubility constant Hcp” value is 0.00099.

On to `ClC(Cl)(Cl)Cl` [tetrachloromethane], for which the “Henry solubility constant Hcp” value was found to be 0.0005.

As for `Cl/C=C/CCl` [trans-1,3-dichloropropene], the “Henry solubility constant Hcp” value worked out at 0.0058.

For `BrC(Br)Br` [tribromomethane], the “Henry solubility constant Hcp” value was found to be 0.022.

For the compound `ClC=C(Cl)Cl` [trichloroethene], the “Henry solubility constant Hcp” value amounted to 0.0012.

On to `ClCc1ccccc1CCl` [α,α-dichloro-o-xylene], for which the “Henry solubility constant Hcp” value was found to be 0.1.

For the origin of these results see Sander's compilation of Henry's law constants (doi:10.1021/je3010535).
